Laboratory results: US6225306A, “Biphenyl derivatives and drug composition” (Wakamoto Pharmaceutical Co., Ltd., priority 1997, dated 2001)
Several values for one entry are separate records, joined by “and”; a condition that tells them apart may be missing. Equal values may be shown once. Where a name gives a salt, the structure may show the parent alone. Read-outs that look alike come from different tables or passages of the source.

How the values were obtained:
[1] = tested on: male ICR mice; assay: Acute Toxicity Test; assay type: in vivo
Method: To groups of male ICR mice (6-week-old) each consisting of 5 animals, there were orally administered the compounds of Examples 13, 18, 25 and 30 and Comparative Examples 2 and 5 suspended in 5% gum arabic solution at doses of 150, 500 and 1500 mg/kg, followed by observation of the general symptoms of these animals during 7 days after the administration to thus evaluate the number of death. In this respect, mice were given feed and water ad libitum throughout this test except for the term extending from 16 to 20 hours before the administration and 4 hours after the administration.

[2] = biological target: Vasopressin V2 Receptor (Rattus norvegicus, UniProt Q00788); assay: biochemical; assay type: binding, rat (Sprague-Dawley, female; kidney crude membrane); conditions: for inhibition at 0.1 µM: 1 h, read-out: Binding Rate of Vasopressin V2 Receptor; for IC50: [3H] vasopressin V2 antagonist 2 nM, 25° C., 60 minutes, read-out: Affinity for Vasopressin V2 Receptor, IC50
Vasopressin V2 Receptor, sequence (Q00788 whole entry): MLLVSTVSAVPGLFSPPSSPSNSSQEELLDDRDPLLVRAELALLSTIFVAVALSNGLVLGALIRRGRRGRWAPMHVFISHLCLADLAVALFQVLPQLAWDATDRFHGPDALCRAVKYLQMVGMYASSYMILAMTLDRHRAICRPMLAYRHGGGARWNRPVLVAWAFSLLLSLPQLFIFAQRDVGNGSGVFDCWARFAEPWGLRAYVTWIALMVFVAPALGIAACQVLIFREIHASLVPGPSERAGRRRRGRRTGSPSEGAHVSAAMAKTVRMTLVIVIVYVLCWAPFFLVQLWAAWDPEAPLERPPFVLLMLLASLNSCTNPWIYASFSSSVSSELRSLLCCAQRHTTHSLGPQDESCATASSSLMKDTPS

[3] = biological target: Vasopressin V1 Receptor (Rattus norvegicus, UniProt P30560); assay: biochemical; assay type: binding, rat (Sprague-Dawley, female; liver crude membrane); conditions: for inhibition at 0.1 µM: 1 h, read-out: Binding Rate of Vasopressin V1 Receptor
Vasopressin V1 Receptor, sequence (P30560 whole entry): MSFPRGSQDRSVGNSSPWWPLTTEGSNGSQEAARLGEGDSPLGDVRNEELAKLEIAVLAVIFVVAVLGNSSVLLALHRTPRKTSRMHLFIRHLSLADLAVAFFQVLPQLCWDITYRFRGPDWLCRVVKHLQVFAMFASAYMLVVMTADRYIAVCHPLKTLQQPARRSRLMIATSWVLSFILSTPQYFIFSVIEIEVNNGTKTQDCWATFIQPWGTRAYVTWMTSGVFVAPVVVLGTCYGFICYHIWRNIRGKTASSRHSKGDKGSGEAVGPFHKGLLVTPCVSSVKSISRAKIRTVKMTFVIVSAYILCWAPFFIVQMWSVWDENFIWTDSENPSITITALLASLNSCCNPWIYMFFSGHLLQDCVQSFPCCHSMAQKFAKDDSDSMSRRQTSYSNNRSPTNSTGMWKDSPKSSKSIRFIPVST
Method: The livers excised from Sprague-Dawley female rats were cut into small pieces, and were homogenized in 50 mM Tris-HCl, pH 7.4 hereunder referred to as "buffer"). The homogenate was centrifuged at 50000×g, at 4° C. for 20 minutes. The pellet was added the buffer in an amount of 10 times the volume of the pellet, the mixture was recentrifuged by the same method as described above to wash the residue. The buffer was further added to the resulting pellet so that the protein content thereof was adjusted to 10 mg/ml to thus give a crude membrane fraction of rat liver. The crude membrane fraction of rat liver was used in the following test. More specifically, 5000 μg of the crude liver membrane was incubated with [^3 H]-Arg-vasopressin V-1 antagonist ([^3 H) vasopressin V1 antagonist: 2 nM) and various concentration (3×10^-12 to 10^-6) of the test compounds in a 1000 μL of buffer containing 10 mM magnesium chloride, 10 mM potassium chloride and 0.1% bovine serum albumin at 25° C. for 60 minutes. Thereafter the incubation mixture was rapidly filtered by vacuum using a cell harvester. The filters were washed with buffer to remove free ligands and excess buffer, and to thus trap labeled ligand linked with the receptor on the filter paper. The filter paper was sufficiently dried and mixed with a liquid scintillator, and the amount of the [^3 H] vasopressin V1 antagonist bonded to the membrane was determined using a liquid scintillation counter. The inhibition rate at each concentration was calculated according to the following equation:
Inhibition Rate (%)=100-[(B-N)/(B0 -N)]×100
Wherein B represents the amount of the [^3 H] vasopressin V1 antagonist bonded to the membrane in the presence of known amounts of the compound to be tested and the [^3 CH] vasopressin V1 antagonist;
B0 represents the amount of the [^3 H] vasopressin V1 antagonist bonded to the membrane in the absence of the compound to be tested;
N represents the amount of the [^3 H] vasopressin V1 antagonist bonded to the membrane in the presence of an excess of vasopressin (10^-6 M).
The IC50 value (the concentration required to cause 50% inhibition of the specific binding of [^3 H]-V1 antagonist) was determined. […] On the other hand, for the compounds which were investigated only one concentration (10^-7 M), the inhibition rate at that concentration was defined to be the binding rate.

[4] = tested on: Normal Conscious Rat; assay: Aquaretic Effects in Normal Conscious Rat (urine volume); assay type: in vivo, rat (Sprague-Dawley, male)
Method: Aquaretic Effects in Normal Conscious Rat
Studies were performed with Sprague-Dawley male SPF rats (body weight: 240 to 320 g; 8-week-old). In this experiment, each group consisted of not less than 4 animals and rats were fasted over 16 to 20 hours. The animals were acclimatized in metabolic cages for one hour, then each compound to be tested was dissolved in 100% N,N-dimethylformamide or suspended in 5% gum arabic solution and administered to these animals intravenously (iv.) in a dose of 3 mg/kg or orally (p.o.) in a dose of 30 mg/kg. Immediately after the test compound or vehicle were orally administered, saline (25 ml/kg) was given orally. Spontaneous voided urines were collected for 4 hours after the administration of the compound and the amount of the urine were determined. In this case, the control group consisted of animals to which only 5% gum arabic was orally administered.
In addition, known compounds of Comparative Examples 2 and Comparative Examples 3 and 4 represented by the following formulas were used as control compounds.

[5] = 150 mg/kg, oral, 7 days observation
[6] = 500 mg/kg, oral, 7 days observation
[7] = 1500 mg/kg, oral, 7 days observation
[8] = 10^-7 M, inhibition rate at this concentration
[9] = [3H] vasopressin V1 antagonist 2 nM, 25° C., 60 minutes, read-out: Affinity for Vasopressin V1 Receptor, IC50

SMILES | number of death out of 5 or 6 animals ([1]; mouse, in vivo) | inhibition at 0.1 µM [2] [%] | IC50 [3] [nM] | inhibition at 0.1 µM [3] [%] | Amount of Urine Volume ([4]; 3 mg/kg, i.v.) [ml/kg/0-4 hr.] | Amount of Urine Volume ([4]; 30 mg/kg, p.o.) [ml/kg/0-4 hr.] | number of death out of 5 or 6 animals [1, 5] | number of death out of 5 or 6 animals [1, 6] | number of death out of 5 or 6 animals [1, 7] | inhibition at 0.1 µM [2, 8] [%] | IC50 [2] [nM] | inhibition at 0.1 µM [3, 8] [%] | IC50 [3, 9] [nM]
Cc1ccccc1C(=O)Nc1ccc(C(=O)N2CCCC(N(C)C)c3ccccc32)cc1 (stereo not drawn) [Comp. Ex. 2, reference compound] | 4 out of 5 and 0/5 and 4/5 | 91.2 | > 1000 | 3.4 | 22.9 | 79.1 |  |  |  |  |  |  | 
Cc1nc2c([nH]1)-c1ccccc1N(C(=O)c1ccc(NC(=O)c3ccccc3-c3ccccc3)cc1)CC2 [Comparative Example 5, reference compound] |  |  |  |  |  |  | 0/5 | 2 out of 5 and 2/5 | 2 out of 5 and 2/5 |  |  |  | 
O=C(Nc1ccc(C(=O)N2C[C@H]3C[C@@H](O)CN3c3ccccc32)cc1)c1ccccc1-c1ccccc1 [Example 13, (2R,3aR)-2-Hydroxy-5-[4-[(2-Phenylbenzoyl) Amino]Benzoyl]-1,2,3,3a,4,5-Hexahydro-Pyrrolo[1,2-a]Quinoxaline] |  |  |  |  | 55.6 | 82.0 |  | 0/5 | 0/5 |  |  |  | 
Cc1ccc(-c2ccccc2C(=O)Nc2ccc(C(=O)N3C[C@H]4C[C@H](O)CN4c4ccccc43)cc2)cc1 [Example 18, (2S, 3aR)-2-Hydroxy-5-[4-[[2-(4-Tolyl) Benzoyl]Amino]Benzoyl]-1,2,3,3a,4,5-Hexahydro-Pyrrolo[1,2-a]Quinoxaline] |  |  |  |  | 79.2 | 96.3 | 0/6 | 0/6 | 0/6 | 100 | 0.18 | 58.3 | 66
O=C(Nc1ccc(C(=O)N2C[C@@H]3CCCN3C(=O)c3ccccc32)cc1)c1ccccc1-c1ccccc1 [Example 25, (11aS)-10-[4-[(2-Phenylbenzoyl) Amino]Benzoyl]-1,2,3,10,11, 11a-Hexahydro-5H-Pyrrolo[2,1-c][1,4]Benzodiazepin-5-One] |  |  |  |  | 58.5 | 102.7 | 0/6 | 0/6 | 0/6 | 100 | 1.6 | 4.1 | > 1000
O=C1C[C@H]2CN(C(=O)c3ccc(NC(=O)c4ccccc4-c4ccccc4)cc3)c3ccccc3C(=O)N2C1 [Example 30, (11aS)-10-[4-[(2-Phenylbenzoyl) Amino]Benzoyl]-1,2,3,10,11, 11a-Hexahydro-5H-Pyrrolo [2,1-c][1,4]Benzodiazepin-2,5-Dione] |  |  |  |  | 57.1 | 103.0 | 0/6 | 0/6 | 0/6 |  |  |  | 
Cc1ccc(-c2ccccc2C(=O)Nc2ccc(C(=O)N3C[C@@H]4CCCN4C(=S)c4ccccc43)cc2)cc1 [Example 38, (11aS)-10-[4-[[2-(4-Tolyl) Benzoyl]Amino]Benzoyl]-1,2,3,10,11, 11a-Hexahydro-5H-Pyrrolo[2,1-c][1,4]Benzodiazepin-5-Thione] |  |  |  |  | 60.0 | 66.6 |  |  |  | 100 |  | 4.7 | 
O=C(Nc1ccc(C(=O)N2C[C@@H]3CCCN3Cc3ccccc32)cc1)c1ccccc1-c1ccccc1 [Example 41, (11aS)-10-[4-[(2-Phenylbenzoyl) Amino]Benzoyl]-1,2,3,10,11, 11a-Hexahydro-5H-Pyrrolo[12,1-c][1,4]Benzodiazepine Hydrochloride] |  |  |  |  | 29.6 | 73.8 |  |  |  | 92 |  | 6.6 | 
Cl.O=C(Nc1ccc(C(=O)N2C[C@H]3CCCN3Cc3ccccc32)cc1)c1ccccc1-c1ccccc1 [Example 43, (11aR)-10-[4-[(2-Phenylbenzoyl) Amino]Benzoyl]-1,2,3,10,11, 11a-Hexahydro-5H-Pyrrolo[2,1-c][1,4]Benzodiazepine Hydrochloride] |  | 100 |  | 61.6 | 77.5 | 121.6 |  |  |  |  |  |  | 
Cc1ccc(-c2ccccc2C(=O)Nc2ccc(C(=O)N3C[C@H]4CCCN4Cc4ccccc43)cc2)cc1 [Example 44, (11aR)-10-[4-[[2-(4-Tolyl) Benzoyl]Amino]Benzoyl]-1,2,3,10,11, 11-Hexahydro-5H-Pyrrolo[2,1-c][1,4]Benzodiazepine Hydrochloride] |  |  |  |  | 73.0 | 92.8 |  |  |  | 96.7 |  | 48.2 | 
Cl.O=C(Nc1ccc(C(=O)N2C[C@H]3C[C@H](O)CN3Cc3ccccc32)cc1)c1ccccc1-c1ccccc1 [Example 47, (2S, 11aR)-2-Hydroxy-10-[4-[(2-Phenylbenzoyl) Amino]Benzoyl]-1,2,3,10,11,11a-Hexahydro-5H-Pyrrolo[2,1-c][1,4]Benzodiazepine Hydrochloride] |  | 91.9 |  | 59.8 | 79.5 | 109.6 |  |  |  |  | 0.77 |  | 62
Cl.O=C1C[C@@H]2CN(C(=O)c3ccc(NC(=O)c4ccccc4-c4ccccc4)cc3)c3ccccc3CN2C1 [Example 48, (11aR)-10-[4-[(2-Phenylbenzoyl) Amino]Benzoyl]-1,2,3,10,11, 11a-Hexahydro-5H-Pyrrolo[2,1-c][1,4]Benzodiazepin-2-One Hydrochloride] |  | 96.8 |  | 42.3 | 78.9 | 14.8 |  |  |  |  |  |  | 
O=C(Nc1ccc(C(=O)N2CC[C@@H]3CCCN3c3ccccc32)cc1)c1ccccc1-c1ccccc1 [Example 49, (3aS)-6-[4-[(2-Phenylbenzoyl) Amino]Benzoyl]-2,3,3a,4,5,6-Hexahydro-1H-Pyrrolo[1,2-a][1,5]Benzodiazepine] |  |  |  |  | 76.5 | 43.8 |  |  |  | 92.8 |  | 88.3 | 
O=C(Nc1ccc(C(=O)N2CC[C@@H]3C[C@@H](O)CN3c3ccccc32)cc1)c1ccccc1-c1ccccc1 [Example 50] |  |  |  |  | 60.0 | 36.0 |  |  |  | 97.8 |  | 92.4 | 
O=C(Nc1ccc(C(=O)N2CC[C@H]3C[C@@H](O)CN3c3ccccc32)cc1)c1ccccc1-c1ccccc1 [Example 52, (2R,3aS)-2-Hydroxy-6-[4-[(2-Phenylbenzoyl) Amino]Benzoyl]-2,3,3a,4,5,6-Hexahydro-1H-Pyrrolo[1,2-a][1,5]Benzodiazepine] |  |  |  |  | 60.6 | 36.6 |  |  |  | 100 |  | 95.7 | 
O=C(Nc1ccc(C(=O)N2CC[C@H]3C[C@H](O)CN3c3ccccc32)cc1)c1ccccc1-c1ccccc1 [Example 54, (2S, 3aS)-2-Hydroxy-6-[4-[(2-Phenylbenzoyl) Amino]Benzoyl]-2,3,3a,4,5,6-Hexahydro-1H-Pyrrolo[1,2-a][1,5]Benzodiazepine] |  |  |  |  | 78.3 | 68.0 |  |  |  | 95.1 |  | 98.6 | 
